Assay results taken from PMC3673949, “Small Molecule R1498 as a Well-Tolerated and Orally Active Kinase Inhibitor for Hepatocellular Carcinoma and Gastric Cancer Treatment via Targeting Angiogenesis and Mitosis Pathways” (PLoS ONE, 2013).
Values joined by “and” are separate entries in the source; they are usually repeats but may differ in a detail not shown here. Identical values can stand only once. Like-named read-outs stand apart in the source and are kept apart here.

What was measured:
HGC-27 xenograft = experiment: Xenograft efficacy study; type: in vivo, BALB/C nu/nu nude mice; settings: HGC-27, 25 mg/kg twice a day per oral gavage
Protocol: (§3) Tumor cells were inoculated into the right flank of BALB/C nu/nu female nude mice (5∼6 weeks, 16∼18 g, obtained from Sino-British SIPPR/BK Lab. Animal Ltd, Shanghai, China) at optimal density based on our in-house validation study. After the tumor was established and reached 100∼150 mm^3, the mice were randomized into ten mice per group and received treatment according to the schedule. The tumor growth was recorded three times a week with the measurement of length (L) and width (W) by caliper, and calculated as tumor volume (TV, mm^3) = 0.5*L*W*W (mm). […] The tumor regression of individual mouse was defined - the tumor volume at the end was less than the tumor volume when treatment was initiated.

[1] = system: cyclin-dependent kinase 2 (CDK2); set-up: method as in PMID 20832307; settings: previously identified; cited from earlier work
[2] = Dose range finding and toxicokinetic study; type: in vivo
Protocol: (§1) Dose range finding and toxicokinetic study was carried out in rats and Beagle dogs based on in vitro metabolites identification. Wistar rats (male: 3, female 3 in each group, from Vital River, Beijing, China) were fasted overnight, and then received test articles as 0, 6.25, 50 and 100 mg/kg twice a day per oral gavage for a 14-day continuous regimen. Motility observation was applied on a daily bases to find the maximum tolerant dose for the animals. The animals were sacrificed on d14, and the following toxicology observation were carried out including body weight changes, clinical observation, gross necropsy, hematology chemistry and histopathology. On day 1 and day 14, blood samples were obtained via jugular vein puncture from all animals (if alive, using EDTA-K2 tubes). Samples were mixed gently and placed on crushed wet-ice until centrifugation, which was carried out immediately. The samples were centrifuged for approximately 15 minutes at 4°C 2,700 rpm. The resultant plasma was separated, transferred to uniquely labeled clear polypropylene tubes and frozen immediately over solid carbon dioxide (dry ice) until transferred to approximately −80°C. Each animal was bled at the following time points: approximately 5 min, 15 min, 30 min, 1, 2, 4, 8 and 24 hours post first dose on the specific day. The drug concentrations in the plasma were determined by LC-MS/MS. The pharmacokinetic analysis was performed using WinNonlin software (Version 5.2, Pharsight Corporation, CA, USA), and the pharmacokinetic parameters were calculated using a Non-compartmental model method.
Beagle dogs (approximately 8–10 months, from Beijing Marshall Biotechnology Co. Ltd., Beijing, China) were subjected to the study protocol as described above. Each group has one male and one female dog, the dosages of test article were: 0, 1, 7.5 and 15 mg/kg, respectively.

HCCLM3 xenograft = experiment: Xenograft efficacy study; type: in vivo, BALB/C nu/nu nude mice; settings: HCCLM3, 12.5 mg/kg twice a day per oral gavage
Protocol: as §3

[3] = system: human primary gastric tumor derived xenografts; experiment: Three human GC primary tumor derived xenograft models (overall); type: in vivo, BALB/C nu/nu nude mice; settings: three patient derived gastric xenografts, 25 mg/kg
Protocol: In human primary tumor models, fresh human gastric tumor tissues were directly implanted into nonobese diabetic and severe combined immune-deficient (NOD-SCID) mice within 5 hours post-surgery with 5 mm^3 fragments to establish primary tumor xenograft models. […] Treatment began when tumor volume reached 100∼150 mm^3. The tumor measurement and operation protocol was the same as cell line derived tumor model.

phospho-histone H3 (S10) = experiment: Immunofluorescence / western blot of Aurora B activity marker in SGC-7901; type: cell-based, human
Protocol: Cell lysate was prepared in RIPA buffer and quantified by the bicinchoninic acid (BCA) method (Pierce, Rockford, IL). Thirty micrograms of protein per sample was loaded onto a 4∼12% NuPAGE® Novex SDS gel (Invitrogen). The protein was transferred by an iBlot® dry blotting device (Invitrogen) onto nitrocellulose membranes. After blocking nonspecific binding with TBS/Tween20 (0.1%) (TBS/T) containing 5% non-fat milk for 1 h at room temperature, the membrane was incubated in phospho-Aurora A (Thr288) (C39D8) rabbit monoclonal antibody (Cell Signaling Technology, CST #3079, Beverly, MA) or phospho-Histone H3 (Ser10) rabbit polyclonal antibody (CST#9701) (1∶1000 in TBS/T containing 3% bovine serum albumin (BSA), and gently shaken at 4°C overnight. The membrane was washed with TBS/T three times to remove the unbound antibody, then incubated with the secondary antibody (HRP-conjugated goat anti-mouse IgG or goat anti-rabbit IgG, 1∶10000, KangChen Biotech, Shanghai, China) for 1 h at room temperature, respectively. Protein bands were visualized with an enhanced chemiluminescence (ECL) kit (Pierce, Rockford, IL). […]

[4] = Single dose pharmacokinetic (SDPK) study; type: in vivo; settings: Nude Mouse
Protocol: Before the pharmacokinetic study, animals were randomly assigned to the sampling groups (3 animals per time point). Ten additional mice were used to collected plasma blank for calibration curves. The mice were fasted overnight before oral administration. […] The plasma samples and the dose formulation were stored at −20°C until bioanalysis. The data acquisition and control system were created using Analyst 1.4 software from ABI Inc. The concentrations in plasma below the limit of quantitation (LOQ = 1 ng/mL) were designated as zero. […] For rat, dog and monkey SDPK, the blood samples were collected from jugular vein puncture.

Aurora kinase A = Aurora kinase A (Homo sapiens, UniProt O14965); experiment: Z'-Lyte kinase activity assay; type: biochemical; settings: mean of three independent experiments
Sequence of Aurora kinase A (O14965 whole entry): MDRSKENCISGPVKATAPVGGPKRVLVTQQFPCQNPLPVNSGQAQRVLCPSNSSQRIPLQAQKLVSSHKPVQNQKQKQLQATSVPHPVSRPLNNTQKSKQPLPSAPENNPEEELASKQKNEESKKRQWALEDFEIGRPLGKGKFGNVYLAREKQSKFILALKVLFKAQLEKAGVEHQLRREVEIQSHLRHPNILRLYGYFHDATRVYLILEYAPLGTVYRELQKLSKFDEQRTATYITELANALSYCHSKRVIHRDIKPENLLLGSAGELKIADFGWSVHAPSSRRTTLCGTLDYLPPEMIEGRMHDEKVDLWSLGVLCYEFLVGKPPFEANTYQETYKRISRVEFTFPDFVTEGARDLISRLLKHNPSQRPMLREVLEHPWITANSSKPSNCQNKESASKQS
Protocol: (§2) The affinity of R1498 against 402 kinases was determined by KINOMEScan® (Ambit Biosciences, San Diego, CA) and data were presented as dissociation constant (Kd) values. The inhibition on kinase activity of Aurora kinases and VEGFR2 was further characterized by Z’-Lyte kinase activity assays under corresponding ATP concentrations.

Aurora kinase B = Aurora kinase B (Homo sapiens, UniProt Q96GD4); experiment: Z'-Lyte kinase activity assay; type: biochemical; settings: mean of three independent experiments
Sequence of Aurora kinase B (Q96GD4 whole entry): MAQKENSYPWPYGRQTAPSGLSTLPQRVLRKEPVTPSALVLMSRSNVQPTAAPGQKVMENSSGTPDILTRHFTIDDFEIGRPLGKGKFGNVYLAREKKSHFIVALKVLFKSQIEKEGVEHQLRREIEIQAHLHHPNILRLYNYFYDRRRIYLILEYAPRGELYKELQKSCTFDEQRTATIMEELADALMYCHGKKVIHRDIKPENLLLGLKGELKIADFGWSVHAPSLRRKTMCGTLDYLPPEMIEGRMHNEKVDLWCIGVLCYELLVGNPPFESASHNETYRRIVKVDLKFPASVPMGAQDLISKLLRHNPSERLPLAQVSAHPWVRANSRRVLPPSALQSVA
Protocol: as §2

VEGFR2 = VEGFR2 (Homo sapiens, UniProt P35968); experiment: Z'-Lyte kinase activity assay; type: biochemical; settings: mean of three independent experiments
Sequence of VEGFR2 (P35968 20-1356): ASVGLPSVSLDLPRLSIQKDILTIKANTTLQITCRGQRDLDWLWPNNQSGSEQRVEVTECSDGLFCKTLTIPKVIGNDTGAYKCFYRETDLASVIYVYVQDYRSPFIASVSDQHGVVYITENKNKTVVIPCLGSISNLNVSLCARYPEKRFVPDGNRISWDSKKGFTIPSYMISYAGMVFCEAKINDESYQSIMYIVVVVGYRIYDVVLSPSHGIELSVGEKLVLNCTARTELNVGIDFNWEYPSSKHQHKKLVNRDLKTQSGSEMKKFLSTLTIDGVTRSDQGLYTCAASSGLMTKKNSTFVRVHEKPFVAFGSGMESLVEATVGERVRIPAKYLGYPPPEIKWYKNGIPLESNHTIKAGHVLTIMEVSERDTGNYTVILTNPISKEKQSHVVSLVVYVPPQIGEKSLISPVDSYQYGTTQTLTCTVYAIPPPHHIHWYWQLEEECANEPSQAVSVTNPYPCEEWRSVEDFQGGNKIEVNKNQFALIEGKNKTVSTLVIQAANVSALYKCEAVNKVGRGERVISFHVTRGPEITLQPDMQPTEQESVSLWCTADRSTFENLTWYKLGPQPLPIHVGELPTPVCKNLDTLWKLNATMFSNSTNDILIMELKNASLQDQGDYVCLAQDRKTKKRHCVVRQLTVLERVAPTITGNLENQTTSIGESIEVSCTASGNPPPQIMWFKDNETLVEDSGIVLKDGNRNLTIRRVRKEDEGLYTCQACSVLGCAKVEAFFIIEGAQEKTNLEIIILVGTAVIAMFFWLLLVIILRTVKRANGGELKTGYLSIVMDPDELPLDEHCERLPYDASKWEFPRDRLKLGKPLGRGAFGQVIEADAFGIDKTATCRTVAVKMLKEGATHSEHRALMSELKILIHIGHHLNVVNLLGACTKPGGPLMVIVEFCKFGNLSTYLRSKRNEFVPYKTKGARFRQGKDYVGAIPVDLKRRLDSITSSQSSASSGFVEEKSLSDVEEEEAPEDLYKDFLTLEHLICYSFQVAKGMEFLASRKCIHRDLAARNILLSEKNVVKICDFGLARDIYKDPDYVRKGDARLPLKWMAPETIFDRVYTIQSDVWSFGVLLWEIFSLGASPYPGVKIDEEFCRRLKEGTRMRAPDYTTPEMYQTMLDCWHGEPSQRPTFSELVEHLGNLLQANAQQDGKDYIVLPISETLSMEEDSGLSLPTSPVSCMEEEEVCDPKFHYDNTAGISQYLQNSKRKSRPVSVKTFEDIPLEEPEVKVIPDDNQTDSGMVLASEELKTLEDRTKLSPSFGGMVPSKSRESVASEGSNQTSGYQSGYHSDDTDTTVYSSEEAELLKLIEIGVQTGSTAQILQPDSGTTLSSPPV
Protocol: as §2

[5] = Dose range finding and toxicokinetic study; type: in vivo; settings: for MTD at 2 week / AUC(0-t): po
Protocol: as §1

## COc1ccc2c(c1)C(c1ccccc1Cl)=Nc1c(n[nH]c1C)N2 [R1498]
HGC-27 xenograft; day of study termination
  Final TGI%: 85%
HGC-27 xenograft; before vs after treatment
  Body weight changes%: 6%
HGC-27 xenograft; mice with regression/group
  Tumor Regression: 0/10
[1]
  CDK2 inhibition: weak
[2]; both sexes, dog, in vivo, po, beagle dogs (F/M), 2-week DRF, bid dosing
  MTD at 2 week: > 15 mg/kg
[2]; both sexes, dog, plasma, po, 15 mg/kg, beagle dogs, at highest dose, read-out: MTD AUC0-24
  AUC(0-t): > 111 µg·h/mL
[2]; dogs, 0, 1, 7.5, 15 mg/kg, 2-week DRF
  Histopathology results: no significant findings at all doses
[2]; female dog
  dose at which body weight loss began: 7.5 mg/kg
HCCLM3 xenograft; day of study termination
  Final TGI%: 81%
HCCLM3 xenograft; before vs after treatment
  Body weight changes%: 15.3%
HCCLM3 xenograft; mice with regression/group
  Tumor Regression: 0/10
[3]
  Final TGI%: 73.6 ∼ 91.6%
  regression rates: 10–30% and 10∼30%
phospho-histone H3 (S10); SGC-7901, 5 µM, 24 h
  phospho-histone H3 (S10) (immunofluorescence): decreased sharply
phospho-histone H3 (S10); SGC-7901 synchronized with nocodazole, various concentrations, acute treatment
  phosphorylation of phospho-histone H3 (S10) (western blot): decreased in a concentration-dependent manner
[4]; 10-100 mg/kg, micronized API suspension
  Oral BA: 44-92 (10-100 mg/kg) %
[4]; male, plasma, iv, 2 mg/kg, single dose
  clearance: 6.3 mL/min/kg
[4]; male, plasma, iv, 2 mg/kg, single dose, read-out: Vdss
  Vd: 2 L/kg
[4]; male, plasma, iv 2 mg/kg
  half-life: 4 h
Aurora kinase A
  IC50: 67 ± 4 nM
Aurora kinase B
  IC50: 167 ± 13 nM
VEGFR2
  IC50: 25 ± 6 nM
[5]; female rats
  dose at which body weight loss began: 12.5 mg/kg
[5]; female, Wistar, rat, in vivo
  MTD AUC / ED90 AUC: 8.1
  MTD at 2 week: 50 mg/kg
[5]; female, Wistar, rat, in vivo, 50 mg/kg
  AUC(0-t): 211 µg·h/mL
[5]; male rats
  dose at which body weight loss began: 100 mg/kg
[5]; male, Wistar, rat, in vivo
  MTD at 2 week: > 100 mg/kg
[5]; male, Wistar, rat, in vivo, 100 mg/kg
  AUC(0-t): > 155 µg·h/mL
